Experimental data taken from patent US11999715B2, “ASK1 inhibiting agents” (BIOGEN MA INC., priority 2018, dated 2024).

Assays:
[1] = In vivo brain penetration, rat Kpuu study; conditions: brain and plasma (unbound concentrations), IV infusion for four hours (1 mg/kg) to steady state, Kpuu=Cu,b/Cu,p
Experimental: Example 113: In Vivo Brain Penetration To evaluate the CNS penetration of the compounds described herein, several compounds were selected for in vivo rat Kpuu studies. In these experiments the compounds are administered via an IV infusion (using N,N-dimethylacetamide:ethanol:1,2-propylene glycol:water in a 1:1:3:5 ratio as the vehicle) in the carotid artery for a period of four hours (1 mg/kg, 0.1 mg/mL) to reach steady state. After this time the plasma and brain concentration levels are quantified, and the values are adjusted by the measured protein binding in plasma and brain homogenate to calculate the Kpuu (see Di, […] . Blood-Brain Barrier in Drug Discovery (Wiley)) according to the equation below. Kpuu=Cu,b/Cu,p Wherein: • Cu,b=Unbound concentration in brain (C×fu,b). (C=concentration at steady state; fu,b=fraction unbound in brain) • And in which: Cu,p=Unbound concentration in plasma (C×fu,p). (C=concentration at steady state; fu,p=fraction unbound in plasma) Plasma and brain protein binding values were generated via the Rapid Equilibrium Dialysis method. The compound of interest was incubated in K2EDTA plasma and brain homogenate (homogenized 1:7 (w:v) in 1×PBS) purchased from BioIVT (Westbury, NY), opposite a buffered compartment of 100 mM Potassium phosphate/150 mM Sodium chloride, pH 7.4, at 1 μM for 4 hr and 6 hr respectively. At the conclusion of incubation samples were taken from both matrix and buffered compartments, matrix-matched using blank buffer and matrix, extracted with acetonitrile, diluted with water, and analyzed utilizing an Agilent RapidFire 365 high-throughput LC coupled with MS/MS detection via an AB Sciex 5500. Free fractions (fu) were then calculated by comparing internal standard/analyte peak-area ratios of matrix and buffered compartments. […] Total drug concentration in plasma and brain tissue was measured via well-established bioanalytical extraction (protein precipitation) and detection methods (LC-MS/MS).

[2] = molecular target: T1, ASK1 T838 auto phosphorylation (Homo sapiens, UniProt Q99683); assay: ASK1 (AUTO PHOS T838) assay, MSD format, in HEK-293T cells transfected with ASK1-V5; format: cell-based; conditions: ASK1 T838 auto phosphorylation in HEK-293T cells, 1 hr compound incubation; class symbols
T1 sequence (Q99683 1-1374): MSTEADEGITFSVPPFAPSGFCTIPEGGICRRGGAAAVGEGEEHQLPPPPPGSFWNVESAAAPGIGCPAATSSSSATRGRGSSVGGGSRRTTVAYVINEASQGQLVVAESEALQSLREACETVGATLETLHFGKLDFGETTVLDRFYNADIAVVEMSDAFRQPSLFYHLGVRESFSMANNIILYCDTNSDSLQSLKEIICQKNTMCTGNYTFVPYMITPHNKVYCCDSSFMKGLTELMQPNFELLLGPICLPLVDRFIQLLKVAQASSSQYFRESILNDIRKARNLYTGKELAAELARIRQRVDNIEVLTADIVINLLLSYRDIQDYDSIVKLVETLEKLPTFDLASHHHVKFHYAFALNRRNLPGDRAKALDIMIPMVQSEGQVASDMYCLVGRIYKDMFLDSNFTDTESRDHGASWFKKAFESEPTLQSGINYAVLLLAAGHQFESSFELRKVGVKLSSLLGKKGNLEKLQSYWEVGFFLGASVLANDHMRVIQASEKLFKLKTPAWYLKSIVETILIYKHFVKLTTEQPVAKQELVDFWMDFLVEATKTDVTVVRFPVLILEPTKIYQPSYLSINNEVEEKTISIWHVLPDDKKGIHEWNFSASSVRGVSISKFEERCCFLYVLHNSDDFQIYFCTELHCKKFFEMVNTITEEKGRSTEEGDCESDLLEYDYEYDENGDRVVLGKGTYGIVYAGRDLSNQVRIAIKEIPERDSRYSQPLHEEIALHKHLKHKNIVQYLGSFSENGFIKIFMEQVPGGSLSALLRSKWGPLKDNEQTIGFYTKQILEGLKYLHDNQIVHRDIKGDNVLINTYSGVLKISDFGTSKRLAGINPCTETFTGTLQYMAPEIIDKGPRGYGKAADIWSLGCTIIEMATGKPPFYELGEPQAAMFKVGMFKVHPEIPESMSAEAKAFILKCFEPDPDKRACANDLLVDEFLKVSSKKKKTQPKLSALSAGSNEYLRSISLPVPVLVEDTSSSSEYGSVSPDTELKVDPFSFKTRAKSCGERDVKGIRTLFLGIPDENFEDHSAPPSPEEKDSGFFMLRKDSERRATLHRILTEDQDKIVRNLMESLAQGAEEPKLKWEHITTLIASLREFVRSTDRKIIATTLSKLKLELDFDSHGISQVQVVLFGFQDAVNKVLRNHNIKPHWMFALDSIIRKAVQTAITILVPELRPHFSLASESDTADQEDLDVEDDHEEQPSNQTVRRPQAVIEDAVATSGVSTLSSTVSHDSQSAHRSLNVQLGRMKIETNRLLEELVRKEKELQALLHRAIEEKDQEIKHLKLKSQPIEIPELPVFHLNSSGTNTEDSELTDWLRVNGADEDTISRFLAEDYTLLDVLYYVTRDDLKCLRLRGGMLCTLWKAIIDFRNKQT
In short: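 HEK-293T cells transiently transfected with full-length ASK1-V5 plasmid were replated, then treated 1 h at 37 °C with a 10-point, 3-fold series from 20 μM. Lysates were probed by MSD with anti-pASK1 T838 and a sulfo-tag secondary, read by chemiluminescence. IC50 came from a 4-parameter fit of normalized % activity.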

ASK1/MAP3K5 = molecular target: T2, ASK1/MAP3K5 (Homo sapiens, UniProt Q99683); assay: ASK1/MAP3K5 kinase assay by Reaction Biology Corp. (headed ASK1 TR-FRET Assay); format: biochemical; conditions: 20 μM myelin basic protein, 10 μM ATP
T2 sequence (Q99683 1-1374): T1 sequence (Q99683 1-1374)
In short: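 Radiometric filter-binding assay with ASK1/MAP3K5, 20 μM MBP substrate and 10 μM ATP plus ^33P-ATP in HEPES pH 7.5 buffer with 1% DMSO. Compounds were preincubated with kinase 20 min, and the reaction then ran 2 hours at room temperature.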

SMILES | Kp uu at 4 h [1] | IC50 [2] | IC50 (ASK1/MAP3K5; class symbols) | IC50 (ASK1/MAP3K5; class given in words)
C[C@@H](n1cnnc1-c1cccc(NC(=O)c2cn(C)nc2C(F)F)n1)C(F)(F)F [Example 23, (R)-3-(Difluoromethyl)-1-methyl-N-(6-(4-(1,1,1-trifluoropropan-2-yl)-4H-1,2,4-triazol-3-yl)pyridin-2-yl)-1H-pyrazole-4-carboxamide] | 0.14 | ≤ 1000 nM | ≤ 100 nM | –
C=CCn1cc(C(=O)Nc2cccc(-c3nncn3C(C)C(F)(F)F)n2)c(OC)n1 (centres unmarked) [Example 56, 1-Allyl-3-methoxy-N-(6-(4-(1,1,1-trifluoropropan-2-yl)-4H-1,2,4-triazol-3-yl)pyridin-2-yl)-1H-pyrazole-4-carboxamide] | 0.33 | ≤ 1000 nM | ≤ 100 nM | –
COc1cncc(-n2cc(C(=O)Nc3cccc(-c4cncn4C(C)C)n3)c(C(F)F)n2)c1 [Example 97, 3-(Difluoromethyl)-N-(6-(1-isopropyl-1H-imidazol-5-yl)pyridin-2-yl)-1-(5-methoxypyridin-3-yl)-1H-pyrazole-4-carboxamide] | – | ≤ 1000 nM | ≤ 100 nM | –
CC(C)n1cncc1-c1cccc(NC(=O)c2cn(-c3cncc(N(C)C)c3)nc2C(F)F)n1 [Example 98, 3-(Difluoromethyl)-1-(5-(dimethylamino)pyridin-3-yl)-N-(6-(1-isopropyl-1H-imidazol-5-yl)pyridin-2-yl)-1H-pyrazole-4-carboxamide] | – | ≤ 1000 nM | 100 to 1000 nM | –
CC(C)Oc1cncc(-n2cc(C(=O)Nc3cccc(-c4cncn4C(C)C)n3)c(C(F)F)n2)c1 [Example 100, 3-(Difluoromethyl)-1-(5-isopropoxypyridin-3-yl)-N-(6-(1-isopropyl-1H-imidazol-5-yl)pyridin-2-yl)-1H-pyrazole-4-carboxamide] | – | ≤ 1000 nM | ≤ 100 nM | –
COc1nn(C)cc1C(=O)Nc1cccc(-c2cncn2C2CC2)c1 [Example 101, N-(3-(1-cyclopropyl-1H-imidazol-5-yl)phenyl)-3-methoxy-1-methyl-1H-pyrazole-4-carboxamide] | – | > 10000 nM | 1000 to 10000 nM | –
COc1nn(CC(F)(F)F)cc1C(=O)Nc1cccc(-c2nncn2C(C)C)n1 [Example 102, N-(6-(4-Isopropyl-4H-1,2,4-triazol-3-yl)pyridin-2-yl)-3-methoxy-1-(2,2,2-trifluoroethyl)-1H-pyrazole-4-carboxamide] | – | ≤ 1000 nM | ≤ 100 nM | –
COc1nn(CC(F)(F)F)cc1C(=O)Nc1cccc(-c2nncn2[C@@H](C)C(F)(F)F)n1 [Example 103, (S)-3-Methoxy-1-(2,2,2-trifluoroethyl)-N-(6-(4-(1,1,1-trifluoropropan-2-yl)-4H-1,2,4-triazol-3-yl)pyridin-2-yl)-1H-pyrazole-4-carboxamide] | – | ≤ 1000 nM | ≤ 100 nM | –
COc1nn(CC(F)(F)F)cc1C(=O)Nc1cccc(-c2nncn2C2CC2)n1 [Example 105, N-(6-(4-Cyclopropyl-4H-1,2,4-triazol-3-yl)pyridin-2-yl)-3-methoxy-1-(2,2,2-trifluoroethyl)-1H-pyrazole-4-carboxamide] | – | ≤ 1000 nM | ≤ 100 nM | –
COc1nn(C)cc1C(=O)Nc1cccc(-c2nncn2C2CCOCC2)n1 [Example 108, 3-Methoxy-1-methyl-N-(6-(4-(tetrahydro-2H-pyran-4-yl)-4H-1,2,4-triazol-3-yl)pyridin-2-yl)-1H-pyrazole-4-carboxamide] | – | 1000 to 10000 nM | 100 to 1000 nM | –

More lines, now with the values ahead:

Kp uu at 4 h [1] | IC50 [2] | IC50 (ASK1/MAP3K5; class symbols) | IC50 (ASK1/MAP3K5; class given in words) | SMILES
0.16 | ≤ 1000 nM | ≤ 100 nM | – | COc1nn(-c2ncccc2C)cc1C(=O)Nc1cccc(-c2nncn2C(C)C)n1 [Example 62, N-(6-(4-Isopropyl-4H-1,2,4-triazol-3-yl)pyridin-2-yl)-3-methoxy-1-(3-methylpyridin-2-yl)-1H-pyrazole-4-carboxamide]
– | ≤ 1000 nM | 100 to 1000 nM | – | CC(C)n1cncc1-c1cccc(NC(=O)c2cn(-c3cncc(C4CC4)c3)nc2C(F)F)n1 [Example 96, 1-(5-Cyclopropylpyridin-3-yl)-3-(difluoromethyl)-N-(6-(1-isopropyl-1H-imidazol-5-yl)pyridin-2-yl)-1H-pyrazole-4-carboxamide]
– | ≤ 1000 nM | ≤ 100 nM | – | CC(C)n1cncc1-c1cccc(NC(=O)c2cn(-c3cncc(O)c3)nc2C(F)F)n1 [Example 99, 3-(Difluoromethyl)-1-(5-hydroxypyridin-3-yl)-N-(6-(1-isopropyl-1H-imidazol-5-yl)pyridin-2-yl)-1H-pyrazole-4-carboxamide]
– | ≤ 1000 nM | ≤ 100 nM | – | COc1nn(CC(F)(F)F)cc1C(=O)Nc1cccc(-c2nncn2[C@@H](C)C(C)C)n1 [Example 104, (S)-3-Methoxy-N-(6-(4-(3-methylbutan-2-yl)-4H-1,2,4-triazol-3-yl)pyridin-2-yl)-1-(2,2,2-trifluoroethyl)-1H-pyrazole-4-carboxamide]
– | ≤ 1000 nM | ≤ 100 nM | – | COc1nn(CC(F)(F)F)cc1C(=O)Nc1cccc(-c2cncn2C(C)C)n1 [Example 106, N-(6-(1-Isopropyl-1H-imidazol-5-yl)pyridin-2-yl)-3-methoxy-1-(2,2,2-trifluoroethyl)-1H-pyrazole-4-carboxamide]
– | > 10000 nM | – | ≥ 10000 nM | COc1nn(C)cc1C(=O)Nc1cccc(-c2nncn2C2COC2)n1 [Example 107, 3-Methoxy-1-methyl-N-(6-(4-(oxetan-3-yl)-4H-1,2,4-triazol-3-yl)pyridin-2-yl)-1H-pyrazole-4-carboxamide]
